# Laboratory results taken from US20160271160A1, “HCV POLYMERASE INHIBITORS” (MEDIVIR AB, priority 2013, published 2016).
# How the values were obtained:
# Format in all cases: cell-based
# [1] = system: HCV GT1b (stable); test: HCV GT1b (stable) replicon; details: Hepatitis C virus, wild type, geometric mean
# From the text: (§1) The compound of Example 2 was further evaluated to assess the antiviral activity against genotypes 1-6 of HCV, both wild type and a number of clinically relevant mutant strains. The result of the evaluation together with the average EC50 of a genotypes and the corresponding values for compound 40ii of WO2014/058801 are summarised in Tables 2 and 3.
# [2] = system: HCV GT1b (transient); test: HCV GT1b (transient) replicon; details: Hepatitis C virus, wild type, geometric mean
# From the text: as §1
# [3] = system: HCV GT1a NS5B in con1 background; test: HCV GT1a chimeric replicon; details: Hepatitis C virus
# From the text: as §1
# [4] = system: HCV GT2a virus; test: HCV GT2a virus; details: Hepatitis C virus, wild type, geometric mean
# From the text: as §1
# [5] = system: HCV GT3a NS5B in con1 background; test: HCV GT3a chimeric replicon; details: Hepatitis C virus
# From the text: as §1
# [6] = system: HCV GT4a NS5B in con1 background; test: HCV GT4a chimeric replicon; details: Hepatitis C virus
# From the text: as §1
# [7] = system: HCV GT5a NS5B in con1 background; test: HCV GT5a chimeric replicon; details: Hepatitis C virus
# From the text: as §1
# [8] = system: HCV GT6a NS5B in con1 background; test: HCV GT6a chimeric replicon; details: Hepatitis C virus
# From the text: as §1
# [9] = system: genotypes 1-6 of HCV, wild type; test: Wild type HCV genotype panel, average
# From the text: as §1
# [10] = system: HCV GT1b S282T; test: HCV GT1b S282T mutant replicon
# From the text: as §1
# [11] = system: HCV GT1a S282T; test: HCV GT1a S282T chimeric mutant replicon
# From the text: as §1
# [12] = system: HCV GT3a S282T; test: HCV GT3a S282T chimeric mutant replicon
# From the text: as §1
# [13] = system: HCV GT4a S282T; test: HCV GT4a S282T chimeric mutant replicon
# From the text: as §1
# [14] = system: HCV mutant strains; test: Mutant HCV panel, average
# From the text: as §1
smiles,measurement,setting,value
CC(C)OC(=O)[C@H](C)OP(=O)(OC[C@H]1O[C@@H](n2ccc(=O)[nH]c2=O)[C@](C)(Cl)[C@@H]1O)Oc1ccccc1 (some centres unmarked) [Cpd. 40ii of WO2014/058801],EC50,[1],91 nM
same,EC50,[2],93 nM
same,EC50,[3],140 nM
same,EC50,[4],26 nM
same,EC50,[5],139 nM
same,EC50,[6],149 nM
same,EC50,[7],105 nM
same,EC50,[8],170 nM
same,EC50,"[9]; Hepatitis C virus, wild type assays, arithmetic mean +/− SEM",114 nM
same,potency increase vs cpd. 40ii of WO2014/058801,"[9]; wild type, from AVG EC50",1.0
same,EC50,"[10]; Hepatitis C virus, geometric mean",344 nM
same,FC vs WT,[10]; fold change of EC50,3.7
same,FC vs WT,"[11]; HCV GT1a S282T, fold change of EC50",4.0
same,EC50,"[11]; Hepatitis C virus, GT1A",554 nM
same,FC vs WT,"[12]; HCV GT3a S282T, fold change of EC50",2.6
same,EC50,"[12]; Hepatitis C virus, GT3A",366 nM
same,FC vs WT,"[13]; HCV GT4a S282T, fold change of EC50",12
same,EC50,"[13]; Hepatitis C virus, GT4A",1720 nM
same,EC50,"[14]; Hepatitis C virus, read-out: AVG EC50",746 nM
same,potency increase vs cpd. 40ii of WO2014/058801,[14]; {},1.0
